# In the supplement of paper PMC13380429:
# ± gives the standard deviation of the averaged measurements.
# How the values were obtained:
# Conditions in all cases: 72 h
# Caco-2 [1] = test: cell viability relative to DMSO; higher = less toxic
# Calu-3 [2] = test: as above
# HepG2 [3] = test: as above
# U2OS [4] = test: as above
# Vero E6 [5] = test: as above
# Caco-2 [6] = test: relative viability EC50 (midpoint between 100% and the lowest measured viability); higher = less toxic
# Calu-3 [7] = test: as above
# HepG2 [8] = test: as above
# U2OS [9] = test: as above
# Vero E6 [10] = test: as above
# Caco-2 [11] = test: drug sensitivity score (DSS) for viability; higher = more toxic; extreme values may be limits of the assay
# Calu-3 [12] = test: as above
# HepG2 [13] = test: as above
# U2OS [14] = test: as above
# Vero E6 [15] = test: as above
Structure (SMILES),cell viability (Caco-2 [1]; 1 nM) [%],cell viability (Caco-2 [1]; 10 nM) [%],cell viability (Caco-2 [1]; 100 nM) [%],cell viability (Caco-2 [1]; 1000 nM) [%],cell viability (Caco-2 [1]; 10000 nM) [%],cell viability (Calu-3 [2]; 1 nM) [%],cell viability (Calu-3 [2]; 10 nM) [%],cell viability (Calu-3 [2]; 100 nM) [%],cell viability (Calu-3 [2]; 1000 nM) [%],cell viability (Calu-3 [2]; 10000 nM) [%],cell viability (HepG2 [3]; 1 nM) [%],cell viability (HepG2 [3]; 10 nM) [%],cell viability (HepG2 [3]; 100 nM) [%],cell viability (HepG2 [3]; 1000 nM) [%],cell viability (HepG2 [3]; 10000 nM) [%],cell viability (U2OS [4]; 1 nM) [%],cell viability (U2OS [4]; 10 nM) [%],cell viability (U2OS [4]; 100 nM) [%],cell viability (U2OS [4]; 1000 nM) [%],cell viability (U2OS [4]; 10000 nM) [%],cell viability (Vero E6 [5]; 1 nM) [%],cell viability (Vero E6 [5]; 10 nM) [%],cell viability (Vero E6 [5]; 100 nM) [%],cell viability (Vero E6 [5]; 1000 nM) [%],cell viability (Vero E6 [5]; 10000 nM) [%],relative viability EC50 (Caco-2 [6]) [µM],relative viability EC50 (Calu-3 [7]) [µM],relative viability EC50 (HepG2 [8]) [µM],relative viability EC50 (U2OS [9]) [µM],relative viability EC50 (Vero E6 [10]) [µM],drug sensitivity score (Caco-2 [11]),drug sensitivity score (Calu-3 [12]),drug sensitivity score (HepG2 [13]),drug sensitivity score (U2OS [14]),drug sensitivity score (Vero E6 [15])
CC(C)CC(NC(=O)OCC1c2ccccc2-c2ccccc21)C(=O)O (stereo in doubt),85.2,90.4,104,96.5,98.2,89.2,102,107,102,92.8,90.3,103,90.1,102,97.8,91,95.3,105,99.7,101,97.3,102,95.6,94.5,108,> 10,> 10,> 10,> 10,> 10,0,0,0,0,0
CC(C)C(N)C(=O)O (stereo in doubt) [L-valine],96,91.3,100,98.7,102,102,105,95.9,93,99,94.8,94.5,99,96.9,99.3,101,92.7,98.1,93.5,102,96.8,96.7,96.6,92.3,95.5,> 10,> 10,> 10,> 10,> 10,0,0,0,0,0
CC(C)(S)C(N)C(=O)O (stereo in doubt) [penicillamine-(racemic)],105 ± 1.9,98 ± 0.42,96 ± 3.5,93.7 ± 4.4,98.55 ± 0.35,95.7 ± 11,94.9 ± 13,98.3 ± 5,106 ± 3.7,108 ± 3.2,103,106,110,95,100,103 ± 1.8,97.4 ± 2.1,100.2 ± 0.35,98.5 ± 6.2,101 ± 1.1,104 ± 6.7,102 ± 5.4,102 ± 2.6,99.9 ± 7.1,101 ± 3.6,> 10,> 10,> 10,> 10,> 10,0,0,0,0,0
NCCOB(c1ccccc1)c1ccccc1 [2-APB],91,93.3,98.5,94.3,104,101,96.3,99.1,105,103,96.8,112,91.2,93.4,92.1,96,95.6,100,100,104,110,108,97.4,101,105,> 10,> 10,> 10,> 10,> 10,0,0,0,0,0
O=C(O)CNC(=O)c1ccccc1I [2-iodohippuric-acid],103,103,93.1,96.4,105,101,106,91.7,104,91.7,101,100,97.3,101,91.3,100,97.6,97.8,96.7,102,109,107,99.1,102,97.8,> 10,> 10,> 10,> 10,> 10,0,0,0,0,0
CCCCCCCCCCC(CO)CCCCCCCC (stereo not given) [2-octyldodecan-1-ol],96.1,103,98.9,93.1,98.2,98.5,88.2,98.2,100,102,96.8,95.8,102,102,98.3,96.6,98,97.3,101,95.9,98.4,97.3,97.4,93.5,99.7,> 10,> 10,> 10,> 10,> 10,0,0,0,0,0
OCCCNc1ccccc1 [3-anilinopropan-1-ol],101,91.8,93.7,93.3,95.3,106,104,99.6,97,115,103,101,95.6,103,94.9,99.6,106,97.8,102,98.7,100,96.1,107,94.4,97.9,> 10,> 10,> 10,> 10,> 10,0,0,0,0,0
